Several values for one entry are separate records, joined by “and”; a condition that tells them apart may be missing. Equal values may be shown once. Read-outs that look alike come from different tables or passages of the source.
Tests used:
[1] = tested on: GM1 production in Jurkat cells; assay: cells; format: cell-based
[2] = Evaluation of blood-brain barrier (BBB) permeability through oral administration; format: in vivo, mice; details: mouse, in vivo
Protocol: The blood-brain barrier (BBB) permeability was evaluated in mice, with respect to the compounds according to the present invention and the control (ibiglustat). Each compound of the present invention and the control were suspended in 0.5% methyl cellulose containing 0.2% Tween 80 and then orally administered to mice at a dose of 10 or 30 mg/10 ml/kg. After the whole blood was collected from the heart of each mouse at the time of 4 hours after the administration, it was placed in a lithium heparin tube and immediately centrifuged to obtain the plasma. After the exsanguination was carried out through abdominal vena cava incision, the forebrain was taken by dissection of the head. Both of the forebrain and the plasma were stored in a −80° C. freezer until the analysis of drug concentrations therein. For the analysis of drug concentrations therein, the forebrain was immersed in distilled water and then homogenized with a homogenizer to obtain a homogenate. Each plasma and homogenate was treated with acetonitrile to precipitate proteins, vortexed for 15 seconds, and then centrifuged (12700 rpm, 10 min, 4° C.). The obtained supernatant was diluted with an 80% aqueous solution of acetonitrile containing 0.1% formic acid and then analyzed with an LC-MS/MS instrument. LC-MS/MS analysis was carried out with a reversed-phase column, using distilled water containing 0.1% formic acid and acetonitrile as mobile phases. Each eluted material was detected through a mass spectrometer to calculate the drug concentrations thereof. The brain-plasma drug ratio (B/P ratio) was calculated from the drug concentrations in each tissue to evaluate the blood-brain barrier (BBB) permeability.

[3] = mice, oral, dose 30 mg/kg, 4 hr, read-out: Mean brain-plasma drug ratio at 4 hr
[4] = mice, oral, dose 30 mg/kg, 4 hr, read-out: Mean drug concentrations in brain tissue at 4 hr
[5] = mice, oral, dose 30 mg/kg, 4 hr, read-out: Mean drug concentrations in plasma at 4 hr

SMILES: CCCCOc1ccc(-c2ccc3c(c2)CC(C)(C)[C@H]3NC(=O)O[C@@H]2CN3CCC2CC3)cc1Cl [Example 17, (S)-quinuclidin-3-yl((R)-5-(4-butoxy-3-chlorophenyl)-2,2-dimethyl-2,3-dihydro-1H-inden-1-yl)carbamate]
- IC50 ([1]; Homo sapiens, Jurkat, 72 h): 0.0206 µM

SMILES: CC(C)(C)c1ccc(-c2ccc3c(c2)CC(C)(C)[C@H]3NC(=O)O[C@@H]2CN3CCC2CC3)cc1 [Example 6, (S)-quinuclidin-3-yl((R)-5-(4-(tert-butyl)phenyl)-2,2-dimethyl-2,3-dihydro-1H-inden-1-yl)carbamate]
- IC50 ([1]; Homo sapiens, Jurkat, 72 h): 0.00997 µM

SMILES: COc1c(C)cc(-c2cc3c(cc2F)[C@H](NC(=O)O[C@@H]2CN4CCC2CC4)C(C)(C)C3)cc1C [Example 63, (S)-quinuclidin-3-yl((R)-6-fluoro-5-(4-methoxy-3,5-dimethylphenyl)-2,2-dimethyl-2,3-dihydro-1H-inden-1-yl)carbamate]
- IC50 ([1]; Homo sapiens, Jurkat, 72 h): 0.0206 µM
- Kp at 4 h [2, 3]: 1.4
- concentration at 4 h [2, 4]: 1360 ng/g
- concentration at 4 h [2, 5]: 974 ng/mL

SMILES: CCCOc1ccc(-c2ccc3c(c2)CC(C)(C)[C@H]3NC(=O)O[C@@H]2CN3CCC2CC3)cc1Cl [Example 16, (S)-quinuclidin-3-yl((R)-5-(3-chloro-4-propoxyphenyl)-2,2-dimethyl-2,3-dihydro-1H-inden-1-yl)carbamate]
- IC50 ([1]; Homo sapiens, Jurkat, 72 h): 0.0287 µM
- Kp at 4 h [2, 3]: 8.02
- concentration at 4 h [2, 4]: 1280 ng/g
- concentration at 4 h [2, 5]: 160 ng/mL

SMILES: COc1cccc(-c2cc3c(cc2F)[C@H](NC(=O)O[C@@H]2CN4CCC2CC4)C(C)(C)C3)c1 [Example 75, (S)-quinuclidin-3-yl((R)-6-fluoro-5-(3-methoxyphenyl)-2,2-dimethyl-2,3-dihydro-1H-inden-1-yl)carbamate]
- IC50 ([1]; Homo sapiens, Jurkat, 72 h): 0.0148 µM

SMILES: CCc1cccc(-c2cc3c(cc2F)[C@H](NC(=O)O[C@@H]2CN4CCC2CC4)C(C)(C)C3)c1 [Example 71, (S)-quinuclidin-3-yl((R)-5-(3-ethylphenyl)-6-fluoro-2,2-dimethyl-2,3-dihydro-1H-inden-1-yl)carbamate]
- IC50 ([1]; Homo sapiens, Jurkat, 72 h): 0.0127 µM

SMILES: COc1ccc(-c2ccc3c(c2)CC(C)(C)[C@H]3NC(=O)O[C@@H]2CN3CCC2CC3)c(F)c1 [Example 12, (S)-quinuclidin-3-yl((R)-5-(2-fluoro-4-methoxyphenyl)-2,2-dimethyl-2,3-dihydro-1H-inden-1-yl) carbamate]
- IC50 ([1]; read-out: IC50): 0.00594 µM

SMILES: CC(C)Oc1cccc(-c2cc3c(cc2F)[C@H](NC(=O)O[C@@H]2CN4CCC2CC4)C(C)(C)C3)c1 [Example 81, (S)-quinuclidin-3-yl((R)-6-fluoro-5-(3-isopropoxyphenyl)-2,2-dimethyl-2,3-dihydro-1H-inden-1-yl)carbamate]
- IC50 ([1]; Homo sapiens, Jurkat, 72 h): 0.0187 µM

SMILES: CCOc1ccc(-c2ccc3c(c2)CC(C)(C)[C@H]3NC(=O)O[C@@H]2CN3CCC2CC3)cc1 [Example 7, (S)-quinuclidin-3-yl((R)-5-(4-ethoxyphenyl)-2,2-dimethyl-2,3-dihydro-1H-inden-1-yl)carbamate]
- IC50 ([1]; Homo sapiens, Jurkat, 72 h): 0.0137 µM

SMILES: CC1(C)Cc2cc(-c3ccc(OCC4CC4)nc3)ccc2[C@@H]1NC(=O)O[C@@H]1CN2CCC1CC2 [Example 13, (S)-quinuclidin-3-yl((R)-5-(6-(cyclopropylmethoxy)pyridin-3-yl)-2,2-dimethyl-2,3-dihydro-1H-inden-1-yl)carbamate]
- IC50 ([1]; Homo sapiens, Jurkat, 72 h): 0.00415 µM

SMILES: CCCOc1cccc(-c2cc3c(cc2F)[C@H](NC(=O)O[C@@H]2CN4CCC2CC4)C(C)(C)C3)c1 [Example 77, (S)-quinuclidin-3-yl((R)-6-fluoro-2,2-dimethyl-5-(3-propoxyphenyl)-2,3-dihydro-1H-inden-1-yl)carbamate]
- IC50 ([1]; Homo sapiens, Jurkat, 72 h): 0.0237 µM

SMILES: CC(C)COc1cccc(-c2cc3c(cc2F)[C@H](NC(=O)O[C@@H]2CN4CCC2CC4)C(C)(C)C3)c1 [Example 78, (S)-quinuclidin-3-yl((R)-6-fluoro-5-(3-isobutoxyphenyl)-2,2-dimethyl-2,3-dihydro-1H-inden-1-yl)carbamate]
- IC50 ([1]; Homo sapiens, Jurkat, 72 h): 0.0176 µM

SMILES: CCOc1ccc(-c2ccc3c(c2)CC(C)(C)[C@H]3NC(=O)O[C@@H]2CN3CCC2CC3)cc1F [Example 19, (S)-quinuclidin-3-yl((R)-5-(4-ethoxy-3-fluorophenyl)-2,2-dimethyl-2,3-dihydro-1H-inden-1-yl)carbamate]
- IC50 ([1]; Homo sapiens, Jurkat, 72 h): 0.056 µM

SMILES: CC(C)Cc1cccc(-c2cc3c(cc2F)[C@H](NC(=O)O[C@@H]2CN4CCC2CC4)C(C)(C)C3)c1 [Example 74, (S)-quinuclidin-3-yl((R)-6-fluoro-5-(3-isobutylphenyl)-2,2-dimethyl-2,3-dihydro-1H-inden-1-yl)carbamate]
- IC50 ([1]; Homo sapiens, Jurkat, 72 h): 0.0194 µM

SMILES: CCCCc1ccc(-c2ccc3c(c2)CC(C)(C)[C@H]3NC(=O)O[C@@H]2CN3CCC2CC3)cc1 [Example 3, (S)-quinuclidin-3-yl((R)-5-(4-butylphenyl)-2,2-dimethyl-2,3-dihydro-1H-inden-1-yl)carbamate]
- IC50 ([1]; Homo sapiens, Jurkat, 72 h): 0.00124 µM

SMILES: CCCCc1ccc(-c2cc3c(cc2F)[C@H](NC(=O)O[C@@H]2CN4CCC2CC4)C(C)(C)C3)cc1 [Example 60, (S)-quinuclidin-3-yl((R)-5-(4-butylphenyl)-6-fluoro-2,2-dimethyl-2,3-dihydro-1H-inden-1-yl)carbamate]
- IC50 ([1]; Homo sapiens, Jurkat, 72 h): 0.001 µM

SMILES: CCc1ccc(-c2cc3c(cc2F)[C@H](NC(=O)O[C@@H]2CN4CCC2CC4)C(C)(C)C3)cc1 [Example 58, (S)-quinuclidin-3-yl((R)-5-(4-ethylphenyl)-6-fluoro-2,2-dimethyl-2,3-dihydro-1H-inden-1-yl)carbamate]
- IC50 ([1]; Homo sapiens, Jurkat, 72 h): 0.00574 µM

SMILES: CCCc1ccc(-c2ccc3c(c2)CC(C)(C)[C@H]3NC(=O)O[C@@H]2CN3CCC2CC3)cc1 [Example 4, (S)-quinuclidin-3-yl((R)-2,2-dimethyl-5-(4-propylphenyl)-2,3-dihydro-1H-inden-1-yl)carbamate]
- IC50 ([1]; Homo sapiens, Jurkat, 72 h): 0.00374 µM

SMILES: CCc1cccc(-c2ccc3c(c2)CC(C)(C)[C@H]3NC(=O)O[C@@H]2CN3CCC2CC3)c1 [Example 1, (S)-quinuclidin-3-yl((R)-5-(3-ethylphenyl)-2,2-dimethyl-2,3-dihydro-1H-inden-1-yl)carbamate]
- IC50 ([1]; Homo sapiens, Jurkat, 72 h): 0.00453 µM

SMILES: CC(C)c1cccc(-c2cc3c(cc2F)[C@H](NC(=O)O[C@@H]2CN4CCC2CC4)C(C)(C)C3)c1 [Example 73, (S)-quinuclidin-3-yl((R)-6-fluoro-5-(3-isopropylphenyl)-2,2-dimethyl-2,3-dihydro-1H-inden-1-yl)carbamate]
- IC50 ([1]; Homo sapiens, Jurkat, 72 h): 0.0109 µM

SMILES: CC(C)c1cccc(-c2ccc3c(c2)CC(C)(C)[C@H]3NC(=O)O[C@@H]2CN3CCC2CC3)c1 [Example 2, (S)-quinuclidin-3-yl((R)-5-(3-isopropylphenyl)-2,2-dimethyl-2,3-dihydro-1H-inden-1-yl)carbamate]
- IC50 ([1]; Homo sapiens, Jurkat, 72 h): 0.00375 µM

SMILES: CCCCOc1cccc(-c2cc3c(cc2F)[C@H](NC(=O)O[C@@H]2CN4CCC2CC4)C(C)(C)C3)c1 [Example 79, (S)-quinuclidin-3-yl((R)-5-(3-butoxyphenyl)-6-fluoro-2,2-dimethyl-2,3-dihydro-1H-inden-1-yl)carbamate]
- IC50 ([1]; Homo sapiens, Jurkat, 72 h): 0.006 µM

SMILES: CCOc1cccc(-c2cc3c(cc2F)[C@H](NC(=O)O[C@@H]2CN4CCC2CC4)C(C)(C)C3)c1 [Example 76, (S)-quinuclidin-3-yl((R)-5-(3-ethoxyphenyl)-6-fluoro-2,2-dimethyl-2,3-dihydro-1H-inden-1-yl)carbamate]
- IC50 ([1]; Homo sapiens, Jurkat, 72 h): 0.0334 µM

SMILES: CC(C)Cc1ccc(-c2ccc3c(c2)CC(C)(C)[C@H]3NC(=O)O[C@@H]2CN3CCC2CC3)cc1 [Example 5, (S)-quinuclidin-3-yl((R)-5-(4-isobutylphenyl)-2,2-dimethyl-2,3-dihydro-1H-inden-1-yl)carbamate]
- IC50 ([1]; Homo sapiens, Jurkat, 72 h): 0.00414 µM

SMILES: CC(C)(NC(=O)O[C@@H]1CN2CCC1CC2)c1csc(-c2ccc(F)cc2)n1 [Control, Ibiglustat, reference compound]
- Kp at 4 h ([2]; po, 30 mg/kg): 0.501
- concentration at 4 h ([2]; po, 30 mg/kg): 2640 ng/mL and 1320 ng/g

SMILES: CCOc1ccc(-c2cc3c(cc2F)[C@H](NC(=O)O[C@@H]2CN4CCC2CC4)C(C)(C)C3)cc1 [Example 56, (S)-quinuclidin-3-yl((R)-5-(4-ethoxyphenyl)-6-fluoro-2,2-dimethyl-2,3-dihydro-1H-inden-1-yl)carbamate]
- IC50 ([1]; Homo sapiens, Jurkat, 72 h): 0.0107 µM

SMILES: CCOc1c(C)cc(-c2cc3c(cc2F)[C@H](NC(=O)O[C@@H]2CN4CCC2CC4)C(C)(C)C3)cc1C [Example 80, (S)-quinuclidin-3-yl((R)-5-(4-ethoxy-3,5-dimethylphenyl)-6-fluoro-2,2-dimethyl-2,3-dihydro-1H-inden-1-yl)carbamate]
- IC50 ([1]; Homo sapiens, Jurkat, 72 h): 0.051 µM

SMILES: CCCCOc1ccc(-c2cc3c(cc2F)[C@H](NC(=O)O[C@@H]2CN4CCC2CC4)C(C)(C)C3)cc1 [Example 70, (S)-quinuclidin-3-yl((R)-5-(4-butoxyphenyl)-6-fluoro-2,2-dimethyl-2,3-dihydro-1H-inden-1-yl)carbamate]
- IC50 ([1]; Homo sapiens, Jurkat, 72 h): 0.0006 µM

SMILES: CC(C)COc1ccc(-c2ccc3c(c2)CC(C)(C)[C@H]3NC(=O)O[C@@H]2CN3CCC2CC3)cc1 [Example 8, (S)-quinuclidin-3-yl((R)-5-(4-isobutoxyphenyl)-2,2-dimethyl-2,3-dihydro-1H-inden-1-yl)carbamate]
- IC50 ([1]; Homo sapiens, Jurkat, 72 h): 0.00109 µM

From US20240262819A1, “NOVEL COMPOUNDS HAVING INHIBITORY ACTIVITY AGAINST GLUCOSYLCERAMIDE SYNTHASE OR PHARMACEUTICALLY ACCEPTABLE SALT THEREOF, PROCESSES FOR PREPARING THE SAME, AND PHARMACEUTICAL COMPOSITIONS COMPRISING THE SAME” (YUHAN CORPORATION, priority 2021, published 2024)
